Laboratory results as given in PubChem BioAssay (NCI).
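Step 1: Grow cells in 96-well plates. Step 2: Expose to compound for 48 hours at 5 concentrations. Step 3: Interpolate endpoints linearly; if unreached, use highest concentration. GI50: concentration for 50% inhibition of growth. TGI is the concentration that stops growth completely.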

How the values were obtained:
Test in all cases: NCI tumour cell line growth inhibition, 48 h
NCI-H23 lung = test system: NCI-H23 lung
SK-MEL-5 melanoma = test system: SK-MEL-5 melanoma
786-0 renal = test system: 786-0 renal
SN12C renal = test system: SN12C renal
K-562 leukemia = test system: K-562 leukemia
UACC-257 melanoma = test system: UACC-257 melanoma
MDA-N = test system: MDA-N
T-47D breast = test system: T-47D breast
SF-268 CNS = test system: SF-268 CNS
HCT-15 colon = test system: HCT-15 colon
SF-295 CNS = test system: SF-295 CNS
MDA-MB-231 breast = test system: MDA-MB-231 breast
OVCAR-8 ovarian = test system: OVCAR-8 ovarian
RXF 393 renal = test system: RXF 393 renal
MCF7 breast = test system: MCF7 breast
M14 melanoma = test system: M14 melanoma
UACC-62 melanoma = test system: UACC-62 melanoma
MOLT-4 leukemia = test system: MOLT-4 leukemia
NCI-H522 lung = test system: NCI-H522 lung
SF-539 CNS = test system: SF-539 CNS
SK-MEL-28 melanoma = test system: SK-MEL-28 melanoma
U251 CNS = test system: U251 CNS
A498 renal = test system: A498 renal
OVCAR-3 ovarian = test system: OVCAR-3 ovarian
UO-31 renal = test system: UO-31 renal
SNB-19 CNS = test system: SNB-19 CNS
HL-60(TB) leukemia = test system: HL-60(TB) leukemia
TK-10 renal = test system: TK-10 renal
PC-3 prostate = test system: PC-3 prostate
SW-620 colon = test system: SW-620 colon
CAKI-1 renal = test system: CAKI-1 renal
HS 578T breast = test system: HS 578T breast
OVCAR-5 ovarian = test system: OVCAR-5 ovarian
SR leukemia = test system: SR leukemia
EKVX NSCLC = test system: EKVX NSCLC
NCI/ADR-RES ovarian = test system: NCI/ADR-RES ovarian
BT-549 breast = test system: BT-549 breast
SK-OV-3 ovarian = test system: SK-OV-3 ovarian
HOP-62 NSCLC = test system: HOP-62 NSCLC
SK-MEL-2 melanoma = test system: SK-MEL-2 melanoma
HCC-2998 colon = test system: HCC-2998 colon
A549 NSCLC = test system: A549 NSCLC
MDA-MB-435 = test system: MDA-MB-435
IGROV1 ovarian = test system: IGROV1 ovarian
COLO 205 colon = test system: COLO 205 colon
MALME-3M melanoma = test system: MALME-3M melanoma
LOX IMVI melanoma = test system: LOX IMVI melanoma
CCRF-CEM leukemia = test system: CCRF-CEM leukemia
DU-145 prostate = test system: DU-145 prostate
HT29 colon = test system: HT29 colon
SNB-75 CNS = test system: SNB-75 CNS
NCI-H226 lung = test system: NCI-H226 lung
ACHN renal = test system: ACHN renal
HOP-92 NSCLC = test system: HOP-92 NSCLC
RPMI-8226 leukemia = test system: RPMI-8226 leukemia
HCT-116 colon = test system: HCT-116 colon
NCI-H460 lung = test system: NCI-H460 lung
OVCAR-4 ovarian = test system: OVCAR-4 ovarian
KM12 colon = test system: KM12 colon

## CCCC(=O)OC[n+]1cccc(-c2c(COC(=O)NC(C)C)c(COC(=O)NC(C)C)c3n2CCC3)c1
NCI-H23 lung
  TGI: > 100 µM
SK-MEL-5 melanoma
  TGI: > 100 µM
786-0 renal
  TGI: > 100 µM
SN12C renal
  TGI: > 100 µM
K-562 leukemia
  TGI: > 100 µM
UACC-257 melanoma
  TGI: > 100 µM
MDA-N
  TGI: > 100 µM
T-47D breast
  TGI: > 100 µM
SF-268 CNS
  TGI: > 100 µM
HCT-15 colon
  TGI: > 100 µM
SF-295 CNS
  TGI: > 100 µM
MDA-MB-231 breast
  TGI: > 100 µM
OVCAR-8 ovarian
  TGI: > 100 µM
RXF 393 renal
  TGI: > 56.7 µM
MCF7 breast
  TGI: > 100 µM
M14 melanoma
  TGI: > 100 µM
UACC-62 melanoma
  TGI: 61.8 µM
MOLT-4 leukemia
  TGI: > 83.3 µM
NCI-H522 lung
  TGI: 71.8 µM
SF-539 CNS
  TGI: 60.9 µM
SK-MEL-28 melanoma
  TGI: > 100 µM
U251 CNS
  TGI: > 100 µM
A498 renal
  TGI: > 61.6 µM
OVCAR-3 ovarian
  TGI: > 100 µM
UO-31 renal
  TGI: > 100 µM
SNB-19 CNS
  TGI: > 100 µM
HL-60(TB) leukemia
  TGI: > 67.3 µM
TK-10 renal
  TGI: > 100 µM
PC-3 prostate
  TGI: > 100 µM
SW-620 colon
  TGI: > 100 µM
CAKI-1 renal
  TGI: 46 µM
HS 578T breast
  TGI: > 100 µM
OVCAR-5 ovarian
  TGI: > 100 µM
SR leukemia
  TGI: > 100 µM
EKVX NSCLC
  TGI: > 100 µM
NCI/ADR-RES ovarian
  TGI: > 100 µM
BT-549 breast
  TGI: > 100 µM
SK-OV-3 ovarian
  TGI: > 100 µM
HOP-62 NSCLC
  TGI: > 100 µM
SK-MEL-2 melanoma
  TGI: > 100 µM
HCC-2998 colon
  TGI: > 100 µM
A549 NSCLC
  TGI: > 100 µM
MDA-MB-435
  TGI: > 100 µM
IGROV1 ovarian
  TGI: > 100 µM
COLO 205 colon
  TGI: > 100 µM
MALME-3M melanoma
  TGI: > 100 µM
LOX IMVI melanoma
  TGI: > 100 µM
CCRF-CEM leukemia
  TGI: > 66.3 µM
DU-145 prostate
  TGI: > 100 µM
HT29 colon
  TGI: > 100 µM
SNB-75 CNS
  TGI: > 100 µM
NCI-H226 lung
  TGI: > 100 µM
ACHN renal
  TGI: > 100 µM
HOP-92 NSCLC
  TGI: > 88.7 µM
RPMI-8226 leukemia
  TGI: > 100 µM
HCT-116 colon
  TGI: > 100 µM
NCI-H460 lung
  TGI: > 100 µM
OVCAR-4 ovarian
  TGI: > 100 µM
KM12 colon
  TGI: > 100 µM

## Cn1cc(C[C@@H](N)C(=O)O)c2ccccc21
NCI-H23 lung
  TGI: > 100 µM
SK-MEL-5 melanoma
  GI50: > 100 µM
  TGI: > 100 µM
786-0 renal
  TGI: > 100 µM
SN12C renal
  TGI: > 100 µM
K-562 leukemia
  TGI: > 100 µM
UACC-257 melanoma
  TGI: > 100 µM
MDA-N
  TGI: > 100 µM
T-47D breast
  TGI: > 100 µM
SF-268 CNS
  TGI: > 100 µM
HCT-15 colon
  TGI: > 100 µM
SF-295 CNS
  TGI: > 100 µM
MDA-MB-231 breast
  TGI: > 100 µM
OVCAR-8 ovarian
  TGI: > 100 µM
RXF 393 renal
  TGI: > 100 µM
MCF7 breast
  TGI: > 100 µM
M14 melanoma
  TGI: > 100 µM
UACC-62 melanoma
  TGI: > 100 µM
MOLT-4 leukemia
  TGI: > 100 µM
NCI-H522 lung
  TGI: > 100 µM
SF-539 CNS
  TGI: > 100 µM
SK-MEL-28 melanoma
  TGI: > 100 µM
U251 CNS
  TGI: > 100 µM
A498 renal
  TGI: > 100 µM
OVCAR-3 ovarian
  TGI: > 100 µM
UO-31 renal
  TGI: > 100 µM
SNB-19 CNS
  TGI: > 100 µM
HL-60(TB) leukemia
  TGI: > 100 µM
TK-10 renal
  TGI: > 100 µM
PC-3 prostate
  TGI: > 100 µM
SW-620 colon
  TGI: > 100 µM
CAKI-1 renal
  TGI: > 100 µM
HS 578T breast
  GI50: > 100 µM
  TGI: > 100 µM
OVCAR-5 ovarian
  TGI: > 100 µM
SR leukemia
  TGI: > 100 µM
EKVX NSCLC
  TGI: > 100 µM
NCI/ADR-RES ovarian
  TGI: > 100 µM
BT-549 breast
  TGI: > 100 µM
SK-OV-3 ovarian
  TGI: > 100 µM
HOP-62 NSCLC
  TGI: > 100 µM
SK-MEL-2 melanoma
  TGI: > 100 µM
HCC-2998 colon
  TGI: > 100 µM
A549 NSCLC
  TGI: > 100 µM
MDA-MB-435
  TGI: > 100 µM
IGROV1 ovarian
  TGI: > 100 µM
COLO 205 colon
  TGI: > 100 µM
MALME-3M melanoma
  TGI: > 100 µM
LOX IMVI melanoma
  TGI: > 100 µM
CCRF-CEM leukemia
  TGI: > 100 µM
DU-145 prostate
  TGI: > 100 µM
HT29 colon
  TGI: > 100 µM
SNB-75 CNS
  TGI: > 100 µM
NCI-H226 lung
  TGI: > 100 µM
ACHN renal
  TGI: > 100 µM
HOP-92 NSCLC
  GI50: > 100 µM
  TGI: > 100 µM
RPMI-8226 leukemia
  TGI: > 100 µM
HCT-116 colon
  TGI: > 100 µM
NCI-H460 lung
  TGI: > 100 µM
OVCAR-4 ovarian
  TGI: > 100 µM
KM12 colon
  TGI: > 100 µM

## COC(=O)c1ccc([N+](=O)[O-])c(O)c1
NCI-H23 lung
  TGI: > 100 µM
SK-MEL-5 melanoma
  TGI: > 100 µM
786-0 renal
  TGI: > 100 µM
SN12C renal
  TGI: > 100 µM
K-562 leukemia
  TGI: > 100 µM
UACC-257 melanoma
  TGI: > 100 µM
MDA-N
  TGI: > 100 µM
T-47D breast
  TGI: > 100 µM
SF-268 CNS
  TGI: > 100 µM
HCT-15 colon
  TGI: > 100 µM
SF-295 CNS
  TGI: > 100 µM
MDA-MB-231 breast
  TGI: > 100 µM
OVCAR-8 ovarian
  TGI: > 100 µM
RXF 393 renal
  TGI: > 100 µM
MCF7 breast
  TGI: > 100 µM
M14 melanoma
  TGI: > 100 µM
UACC-62 melanoma
  TGI: > 100 µM
MOLT-4 leukemia
  TGI: > 100 µM
NCI-H522 lung
  TGI: > 100 µM
SF-539 CNS
  TGI: > 100 µM
SK-MEL-28 melanoma
  TGI: > 100 µM
U251 CNS
  TGI: > 100 µM
A498 renal
  TGI: > 100 µM
OVCAR-3 ovarian
  TGI: > 100 µM
UO-31 renal
  TGI: > 100 µM
SNB-19 CNS
  TGI: > 100 µM
HL-60(TB) leukemia
  TGI: > 100 µM
TK-10 renal
  TGI: > 100 µM
PC-3 prostate
  TGI: > 100 µM
SW-620 colon
  TGI: > 100 µM
CAKI-1 renal
  TGI: > 100 µM
HS 578T breast
  TGI: > 100 µM
OVCAR-5 ovarian
  TGI: > 100 µM
SR leukemia
  TGI: > 100 µM
EKVX NSCLC
  TGI: > 100 µM
NCI/ADR-RES ovarian
  TGI: > 100 µM
BT-549 breast
  TGI: > 100 µM
SK-OV-3 ovarian
  TGI: > 100 µM
HOP-62 NSCLC
  TGI: > 100 µM
SK-MEL-2 melanoma
  TGI: > 100 µM
HCC-2998 colon
  TGI: > 100 µM
A549 NSCLC
  TGI: > 100 µM
MDA-MB-435
  TGI: > 100 µM
IGROV1 ovarian
  TGI: > 100 µM
COLO 205 colon
  TGI: > 100 µM
MALME-3M melanoma
  TGI: > 100 µM
LOX IMVI melanoma
  TGI: > 100 µM
CCRF-CEM leukemia
  TGI: > 100 µM
DU-145 prostate
  TGI: > 100 µM
HT29 colon
  TGI: > 100 µM
SNB-75 CNS
  TGI: > 100 µM
NCI-H226 lung
  TGI: > 100 µM
ACHN renal
  TGI: > 100 µM
HOP-92 NSCLC
  TGI: > 100 µM
RPMI-8226 leukemia
  TGI: > 100 µM
HCT-116 colon
  TGI: > 100 µM
NCI-H460 lung
  TGI: > 100 µM
OVCAR-4 ovarian
  TGI: > 100 µM
KM12 colon
  TGI: > 100 µM
